According to EP2794556B1, “BIS-(ARYL/HETEROARYL)-METHYLENE COMPOUNDS, PHARMACEUTICAL COMPOSITIONS CONTAINING SAME AND THEIR USE FOR TREATING CANCER” (Gleason, James L., priority 2011, dated 2013):

Tests used:
[1] = test system: SCC4 cells; experiment: MTS cell proliferation assay; type: cell-based, human; conditions: vitamin D resistant SCC4 cells, Figures 7c, 8 and 9
Description: Dose-dependent effects of compounds on cell cycle progression was monitored using a CellTiter 96 Aqueous Non-Radioactive Cell Proliferation Assay Kit (Promega). The assay composed of solutions of a novel tetrazolium compound (MTS) and an electron coupling reagent (phenazine methosulfate; PMS). MTS is reduced by metabolically active cells into a soluble formazan product that absorbs at 490nm. The quantity of formazan product absorbing at 490nm is directly proportional to the number of living cells.

[2] = test system: A549/A/TCC; experiment: NCI 60 cell panel
[3] = test system: NCI-H322M; experiment: NCI 60 cell panel
[4] = test system: HCT-15; experiment: NCI 60 cell panel
[5] = test system: SF-268; experiment: NCI 60 cell panel
[6] = test system: SNB-19; experiment: NCI 60 cell panel
[7] = test system: SNB-75; experiment: NCI 60 cell panel
[8] = test system: U251; experiment: NCI 60 cell panel
[9] = test system: M14; experiment: NCI 60 cell panel
[10] = test system: SK-MEL-5; experiment: NCI 60 cell panel
[11] = test system: IGROVI; experiment: NCI 60 cell panel
[12] = test system: OVCAR-4; experiment: NCI 60 cell panel
[13] = test system: OVCAR-5; experiment: NCI 60 cell panel
[14] = test system: A498; experiment: NCI 60 cell panel
[15] = test system: RXF 393; experiment: NCI 60 cell panel
[16] = test system: SN12C; experiment: NCI 60 cell panel
[17] = test system: TK-10; experiment: NCI 60 cell panel
[18] = test system: MCF7; experiment: NCI 60 cell panel
[19] = test system: MDA-MB-468; experiment: NCI 60 cell panel
[20] = test system: SCC4 cells; experiment: EdU cell growth assay
Description: EdU cell growth assay. Click-iT EdU Alexa Fluor high-throughput imaging (HCS) assay for cell proliferation. HCS assays were performed on AT84 mouse squamous carcinoma cell line (ATCC) following the manufacturer's instruction (Molecular Probes, Invitrogen). […] All samples were in triplicate.

CCC(CC)(c1ccc(OCC(=O)NO)c(C)c1)c1ccc(OCC(O)C(C)(C)C)c(C)c1 (racemic) [JF-B01, N-Hydroxy-2-(4-(3-(4-(2-hydroxy-3,3-dimethylbutoxy)-3-methylphenyl)pentan-3-yl)-2-methylphenoxy)acetamide] was tested, and the antiproliferative potency [1] was “low micromolar potency”, the GI50 ([2]; Homo sapiens, A549) was 3.62 µM and the CC50 ([2]; Homo sapiens, A549, read-out: LC50) was 40.8 µM. For the same compound, the TGI ([2]; Non-Small Cell Lung Cancer, A549/A/TCC) was 1.43E-5, the GI50 ([3]; Homo sapiens) was 2.86 µM and the CC50 ([3]; Homo sapiens, read-out: LC50) was 33 µM. It also gave a TGI ([3]; Non-Small Cell Lung Cancer) of 1.08E-5, a TGI ([4]; Colon Cancer, HCT-15) of 1.12E-5 and a GI50 ([4]; Homo sapiens, HCT-15) of 1.94 µM. It also gave a CC50 ([4]; Homo sapiens, HCT-15, read-out: LC50) of 33.6 µM, a TGI ([5]; CNS Cancer, SF-268) of 1.06E-5 and a GI50 ([5]; Homo sapiens, SF-268) of 2.26 µM. The CC50 ([5]; Homo sapiens, SF-268, read-out: LC50) was 34.6 µM, the TGI ([6]; CNS Cancer, SNB-19) was 1.12E-5 and the GI50 ([6]; Homo sapiens, SNB-19) was 2.41 µM. It also gave a CC50 ([6]; Homo sapiens, SNB-19, read-out: LC50) of 33.5 µM, a TGI ([7]; CNS Cancer, SNB-75) of 1.90E-5 and a GI50 ([7]; Homo sapiens, SNB-75) of 0.0482 µM. The CC50 ([7]; Homo sapiens, SNB-75, read-out: LC50) was 62 µM, the TGI ([8]; CNS Cancer, U251) was 1.23E-5 and the GI50 ([8]; Homo sapiens, U-251) was 2.34 µM. The CC50 ([8]; Homo sapiens, U-251, read-out: LC50) was 40 µM, the GI50 ([9]; Homo sapiens, M14) was 2.3 µM and the CC50 ([9]; Homo sapiens, M14, read-out: LC50) was 16.5 µM. It also gave a TGI ([9]; Melanoma, M14) of 5.33E-6, a GI50 ([10]; Homo sapiens, SK-MEL-5) of 1.39 µM and a CC50 ([10]; Homo sapiens, SK-MEL-5, read-out: LC50) of 5.58 µM. It also gave a TGI ([10]; Melanoma, SK-MEL-5) of 2.79E-6, a GI50 ([11]; Homo sapiens) of 2.08 µM and a CC50 ([11]; Homo sapiens, read-out: LC50) of 19.2 µM. For the same compound, the TGI ([11]; Ovarian Cancer, IGROVI) was 5.25E-6, the GI50 ([12]; Homo sapiens, OVCAR-4) was 1.88 µM and the CC50 ([12]; Homo sapiens, OVCAR-4, read-out: LC50) was 32 µM. The TGI ([12]; Ovarian Cancer, OVCAR-4) was 9.44E-6, the GI50 ([13]; Homo sapiens, OVCAR-5) was 12.9 µM and the CC50 ([13]; Homo sapiens, OVCAR-5, read-out: LC50) was 50.6 µM. The TGI ([13]; Ovarian Cancer, OVCAR-5) was 2.56E-5, the GI50 ([14]; Homo sapiens, A498) was 4.56 µM and the CC50 ([14]; Homo sapiens, A498, read-out: LC50) was 45.6 µM. For the same compound, the TGI ([14]; Renal Cancer, A498) was 2.08E-5, the GI50 ([15]; Homo sapiens, RXF 393) was 5.34 µM and the CC50 ([15]; Homo sapiens, RXF 393, read-out: LC50) was 47.5 µM. The TGI ([15]; Renal Cancer, RXF 393) was 1.91E-5, the GI50 ([16]; Homo sapiens) was 3.87 µM and the CC50 ([16]; Homo sapiens, read-out: LC50) was 40.3 µM. The TGI ([16]; Renal Cancer) was 1.59E-5, the GI50 ([17]; Homo sapiens, TK-10) was 2.83 µM and the CC50 ([17]; Homo sapiens, TK-10, read-out: LC50) was 42.8 µM. It also gave a TGI ([17]; Renal Cancer, TK-10) of 1.60E-5, a TGI ([18]; Breast Cancer, MCF7) of 2.70E-6 and a GI50 ([18]; Homo sapiens, MCF7) of 0.333 µM. For the same compound, the CC50 ([18]; Homo sapiens, MCF7, read-out: LC50) was 12.8 µM, the TGI ([19]; Breast Cancer, MDA-MB-468) was 3.53E-6 and the GI50 ([19]; Homo sapiens, MDA-MB-468) was 1.57 µM. For the same compound, the CC50 ([19]; Homo sapiens, MDA-MB-468, read-out: LC50) was 7.92 µM, the “inhibition of proliferation, EdU incorporation” value ([20]; 1,25D-resistant SCC4 cells, Fig. 2e, f) was “completely” and the “EdU incorporation at higher concentrations” value ([20]; SCC4 cells, higher concentrations) was “completely abolished EdU incorporation”.
